According to patent US20250145598A1, “ACID CERAMIDASE INHIBITORS AND USES THEREOF” (The Regents of the University of California, priority 2021, published 2025):

Target: T1, Acid ceramidase (Homo sapiens, UniProt Q13510)
T1 sequence (Q13510 22-395): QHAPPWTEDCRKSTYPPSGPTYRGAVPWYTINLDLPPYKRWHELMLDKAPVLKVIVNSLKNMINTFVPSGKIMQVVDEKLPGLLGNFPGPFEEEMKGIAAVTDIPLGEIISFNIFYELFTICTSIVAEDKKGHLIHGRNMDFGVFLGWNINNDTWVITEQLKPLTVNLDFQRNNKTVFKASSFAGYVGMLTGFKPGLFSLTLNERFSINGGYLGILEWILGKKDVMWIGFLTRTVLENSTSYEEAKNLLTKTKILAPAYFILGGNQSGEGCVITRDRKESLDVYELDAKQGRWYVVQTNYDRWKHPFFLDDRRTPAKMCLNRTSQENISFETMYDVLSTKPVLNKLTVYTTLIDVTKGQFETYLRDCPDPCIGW
Test: Acid ceramidase assay (AC in vitro IC50)
Format: biochemical
Conditions: Acid ceramidase assay data of example compounds

Compound	IC50 [nM]
C[C@H](Oc1ccc(-c2cn(C(=O)NCCCOc3ccccc3)cn2)cc1)c1ccc(S(C)(=O)=O)cc1 (single isomer, unassigned) [AC2020601-0348]	< 300
C[C@@H](Oc1ccc(-c2cn(C(=O)NCCCOc3ccccc3)cn2)cc1)c1ccc(S(C)(=O)=O)cc1 (single isomer, unassigned) [AC2020601-0349]	< 300
CS(=O)(=O)c1ccc(COc2ccc(-c3cn(C(=O)NC[C@@H]4CCN(c5ccccc5)C4)cn3)cc2)cc1 (single isomer, unassigned) [AC2020601-0384a]	< 300
CS(=O)(=O)c1ccc(COc2ccc(-c3cn(C(=O)NC[C@H]4CCN(c5ccccc5)C4)cn3)cc2)cc1 (single isomer, unassigned) [AC2020601-0384b]	< 300
O=C(NCC1CC1)n1cnc(-c2ccc(OCc3ccc(F)cc3)cc2)c1 [AC2020601-0206, N-(cyclopropylmethyl)-4-(4-(4-fluorobenzyloxy)Vphenyl)-1H-imid azole-1-carboxamide]	< 300
CS(=O)(=O)c1ccc(COc2ccc(-c3cn(C(=O)NCC4CC4)cn3)cc2)cc1 [AC2020601-0295, N-(cyclopropylmethyl)-4-(4-((4-(methylsulfonyl)benzyl)oxy)phenyl)-1H-imidazole-1-carboxamide]	< 300
CS(=O)(=O)c1ccc(CNC(=O)n2cnc(-c3ccc(OCc4ccc(S(C)(=O)=O)cc4)cc3)c2)cc1 [AC2020601-0303, N-(4-(methylsulfonyl)benzyl)-4-(4-((4-(methylsulfonyl)benzyl)oxy)phenyl)-1H-imidazole-1-carboxamide]	301 to 3000
CS(=O)(=O)c1ccc(COc2ccc(-c3cn(C(=O)NCC4CN(c5ccccc5)C4)cn3)cc2)cc1 [AC2020601-0321, 4-(4-((4-(methylsulfonyl)benzyl)oxy)phenyl)-N-((1-phenylazetidin-3-yl)methyl)-1H-imidazole-1-carboxamide]	< 300
CS(=O)(=O)c1ccc(COc2ccc(-c3cn(C(=O)NCCCOc4ccc(C#N)cc4)cn3)cc2)cc1 [AC2020601-0373, N-(3-(4-cyanophenoxy)propyl)-4-(4-(4-(methylsulfonyl)benzyloxy)phenyl)-1H-imidazole-1-carboxamide]	< 300
CS(=O)(=O)c1ccc(COc2ccc(-c3cn(C(=O)NCCCOc4ccc(S(F)(F)(F)(F)F)cc4)cn3)cc2)cc1 [AC2020601-0374]	< 300
CC(C)N1CC(CNC(=O)n2cnc(-c3ccc(OCc4ccc(S(C)(=O)=O)cc4)cc3)c2)C1 [AC2020601-0379, N -((1-isopropylazetidin-3-yl)methyl)-4-(4-((4-(methylsulfonyl)benzyl)oxy)phenyl)-1H-imidazole-1-carboxamide]	> 3000
CS(=O)(=O)Nc1ccc(COc2ccc(-c3cn(C(=O)NCC4CN(c5ccccc5)C4)cn3)cc2)cc1 [AC2020601-0380, 4-(4-((4-(methylsulfonamido)benzyl)oxy)phenyl)-N-((1-phenylazetidin-3-yl)methyl)-1H-imidazole-1-carboxamide]	> 3000
O=C(NCC1CN(c2ccccc2)C1)n1cnc(-c2ccc(OCc3cccc(N4CCOCC4)c3)cc2)c1 [AC2020601-0382, 4-(4-(3-morpholinobenzyloxy)phenyl)-N-((1-phenylazetidin-3-yl)methyl)-1H-imidazole-1-carboxamide]	< 300
O=C(Nc1ccc(COc2ccc(-c3cn(C(=O)NCC4CN(c5ccccc5)C4)cn3)cc2)cc1)C1COC1 [AC2020601-0401, 4-(4-((4-(oxetane-3-carboxamido)benzyl)oxy)phenyl)-N-((1-phenylazetidin-3-yl)methyl)-1H-imidazole-1-carboxamide]	< 300
CS(=O)(=O)c1ccc(COc2ccc(-c3cn(C(=O)NCC4CN(c5cccc(Cl)c5)C4)cn3)cc2)cc1 [AC2020601-0407, N-((1-(3-chlorophenyl)azetidin-3-yl)methyl)-4-(4-((4-(methylsulfonyl)benzyl)oxy)phenyl)-1H-imidazole-1-carboxamide]	< 300

More lines, now with the values ahead:

IC50 [nM]	Compound
< 300	CCCCCCNC(=O)n1cnc(-c2ccccc2OCc2ccccc2)c1 [AC2020601-0199, 4-(2-(benzyloxy)phenyl)-N-hexyl-1H-imidazole-1-carboxamide]
< 300	CS(=O)(=O)c1ccc(COc2ccc(-c3cn(C(=O)NCCCCc4ccccc4)cn3)cc2)cc1 [AC2020601-0243, 4-(4-((4-(methylsulfonyl)benzyl)oxy)phenyl)-N-(4-phenylbutyl)-1H-imidazole-1-carboxamide]
< 300	O=C(NCCCCc1ccccc1)n1cnc(-c2ccc(OCc3cccc(N4CCOCC4)c3)cc2)c1 [AC2020601-0245, 4-(4-((3-morpholinobenzyl)oxy)phenyl)-N-(4-phenylbutyl)-1H-imidazole-1-carboxamide]
< 300	NC(=O)c1cccc(COc2ccc(-c3cn(C(=O)NCCCCc4ccccc4)cn3)cc2)c1 [AC2020601-0246, 4-(4-((3-carbamoylbenzyl)oxy)phenyl)-N-(4-phenylbutyl)-1H-imidazole-1-carboxamide]
< 300	N#Cc1cccc(COc2ccc(-c3cn(C(=O)NCCCCc4ccccc4)cn3)cc2)c1 [AC2020601-0275, 4-(4-((3-cyanobenzyl)oxy)phenyl)-N-(4-phenylbutyl)-1H-imidazole-1-carboxamide]
< 300	O=C(NCCCCc1ccccc1)n1cnc(-c2ccc(OCc3cccnc3)cc2)c1 [AC2020601-0276, N-(4-phenylbutyl)-4-(4-(pyridin-3-ylmethoxy)phenyl)-1H-imidazole-1-carboxamide]
> 3000	CN(CCCCc1ccccc1)C(=O)n1cnc(-c2ccc(OCc3ccccc3)cc2)c1 [AC2020601-0278, 4-(4-(benzyloxy)phenyl)-N-methyl-N-(4-phenylbutyl)-1H-imidazole-1-carboxamide]
< 300	NS(=O)(=O)c1ccc(COc2ccc(-c3cn(C(=O)NCCCCc4ccccc4)cn3)cc2)cc1 [AC2020601-0284, N-(4-phenylbutyl)-4-(4-((4-sulfamoylbenzyl)oxy)phenyl)-1H-imidazole-1-carboxamide]
< 300	CS(=O)(=O)c1ccc(COc2ccc(-c3cn(C(=O)NCCCOc4ccccc4)cn3)cc2)cc1 [AC2020601-0294, 4-(4-((4-(methylsulfonyl)benzyl)oxy)phenyl)-N-(3-phenoxypropyl)-1H-imidazole-1-carboxamide]
< 300	CCCCCCNC(=O)n1cnc(-c2ccc(OCc3ccc(S(C)(=O)=O)cc3)cc2)c1 [AC2020601-0296, N-hexyl-4-(4-((4-(methylsulfonyl)benzyl)oxy)phenyl)-1H-imidazole-1-carboxamide]
< 300	CS(=O)(=O)Nc1ccc(COc2ccc(-c3cn(C(=O)NCCCCc4ccccc4)cn3)cc2)cc1 [AC2020601-0306, 4-(4-((4-(methylsulfonamido)benzyl)oxy)phenyl)-N-(4-phenylbutyl)-1H-imidazole-1-carboxamide]
< 300	O=C(NCCCCc1ccccc1)n1cnc(-c2ccc(OCc3ccncc3)cc2)c1 [AC2020601-0323, N-(4-phenylbutyl)-4-(4-(pyridin-4-ylmethoxy)phenyl)-1H-imidazole-1-carboxamide]
< 300	NS(=O)(=O)c1ccc(COc2ccc(-c3cn(C(=O)NCCCOc4ccccc4)cn3)cc2)cc1 [AC2020601-0324]
< 300	CS(=O)(=O)Nc1ccc(COc2ccc(-c3cn(C(=O)NCCCOc4ccccc4)cn3)cc2)cc1 [AC2020601-0327, 4-(4-((4-(methylsulfonamido)benzyl)oxy)phenyl)-N-(3-phenoxypropyl)-1H-imidazole-1-carboxamide]
< 300	O=C(Nc1ccc(COc2ccc(-c3cn(C(=O)NCCCOc4ccccc4)cn3)cc2)cc1)C1CC1 [AC2020601-0328, 4-(4-((4-(cyclopropanecarboxamido)benzyl)oxy)phenyl)-N-(3-phenoxypropyl)-1H-imidazole-1-carboxamide]
< 300	CNS(=O)(=O)c1ccc(COc2ccc(-c3cn(C(=O)NCCCOc4ccccc4)cn3)cc2)cc1 [AC2020601-0339, 4-(4-((4-(N-methylsulfamoyl)benzyl)oxy)phenyl)-N-(3-phenoxypropyl)-1H-imidazole-1-carboxamide]
< 300	CN1CCN(S(=O)(=O)c2ccc(COc3ccc(-c4cn(C(=O)NCCCOc5ccccc5)cn4)cc3)cc2)CC1 [AC2020601-0342, 4-(4-((4-((4-methylpiperazin-1-yl)sulfonyl)benzyl)oxy)phenyl)-N-(3-phenoxypropyl)-1H-imidazole-1-carboxamide]
< 300	O=C(NCCCOc1ccccc1)n1cnc(-c2ccc(OCc3ccc(S(=O)(=O)N4CCOCC4)cc3)cc2)c1 [AC2020601-0347, 4-(4-((4-(morpholinosulfonyl)benzyl)oxy)phenyl)-N-(3-phenoxypropyl)-1H-imidazole-1-carboxamide]
< 300	O=C(NCCCOc1ccccc1)n1cnc(-c2ccc(OCc3ccc(NS(=O)(=O)C(F)F)cc3)cc2)c1 [AC2020601-0363, 4-(4-((4-(difluoromethylsulfonamido)benzyl)oxy)phenyl)-N-(3-phenoxypropyl)-1H-imidazole-1-carboxamide]
> 3000	CS(=O)(=O)c1ccc(COc2ccc(-c3cn(C(=O)NCC4CN(Cc5ccccc5)C4)cn3)cc2)cc1 [AC2020601-0377, N-((1-benzylazetidin-3-yl)methyl)-4-(4-((4-(methylsulfonyl)benzyl)oxy)phenyl)-1H-imidazole-1-carboxamide]
> 3000	CS(=O)(=O)c1ccc(COc2ccc(-c3cn(C(=O)NCCN4Cc5ccccc5C4)cn3)cc2)cc1 [AC2020601-0402, N-(2-(isoindolin-2-yl)ethyl)-4-(4-(4-(methylsulfonyl)benzyloxy)phenyl)-1H-imidazole-1-carboxamide]
